“Also recorded” adds a separate entry of the source.
Assays:
purified Hb Yakima = assay: Effect on purified Hb Yakima; format: biochemical, human
hemoglobin [1] = conditions: hemoglobin solutions, fresh intact red cells; cited from earlier work
deoxyhemoglobin [2] = target: T1, deoxyhemoglobin (Homo sapiens, UniProt P68871+P69905); conditions: X-ray, literature; cited from earlier work
hemoglobin [3] = assay: Comparison of allosteric effector strength (right shift of oxygen equilibrium curve); format: biochemical; conditions: compounds of FIG. 1
[4] = cited from earlier work
deoxyhemoglobin [5] = target: T1, deoxyhemoglobin; assay: X-ray crystallographic studies with deoxyhemoglobin; format: binding; conditions: near Arg 104β
Procedure: X-ray Crystallographic Studies. Hemoglobin for the crystal studies was prepared from human blood, and T-state deoxy crystals were obtained from ammonium sulfate solutions. RSR-4 or RSR-13 (2 effectors/I Hb) was dissolved in a slight excess of sodium bicarbonate to facilitate dissolution and was added to a 6 g % solution of deoxy-Hb in the glove box. A 1 g % Hb RSR-4 or RSR-13 solution was added to each crystallization tube. Crystals grew in approximately 1 week. X-ray data were collected with Friedel pairs using ω scans on a Rigaku AFC5R diffractometer equipped with a rotating anode and a 60-cm long evacuated beam tunnel. The crystals with allosteric effectors were isomorphous with native deoxy-Hb: RSR-4, 63.2, 83.7, and 53.8 Å, 99.4°; RSR-13, 63.2, 83.6, and 53.7 Å, 99.5°. Data collection (RSR-4 to 2.4-Å and RSR-13 to 2.8-Å resolution) was controlled by TEXAN software from Molecular Structure Corp. (The Woodlands, Tex.). There was little radiation damage to crystals, and new crystals were mounted when standard reference reflection intensities fell by 10%. All data were corrected for radiation damage when appropriate. The R-factors for the Friedel pairs and derivatives vs. native were as follows: RSR-4 (2.4 Å), 14.6% and 18.9%, and RSR-13 (2.8 Å), 7.2% and 12.5%, respectively. The difference electron density maps were obtained using the Cambridge computer programs (CCP4). […] The allosteric effector molecules were well resolved and easily fit to the difference density.

bovine red cells = assay: Hemolysis of bovine red cells in vitro; format: cell-based
human red cells = assay: Hemolysis of human red cells in vitro; format: cell-based
[6] = target: hemoglobin in fresh human red blood cells (Homo sapiens, UniProt P68871+P69905); assay: Oxygen equilibrium curves of fresh human red cell suspensions (p50); format: cell-based; conditions: presence of DIDS
Procedure: Human blood was collected on heparin from healthy nonsmoking donors. Bovine blood was provided by Pr Delpech, INA (Paris-Grignon). Red blood cells were washed three times in isotonic buffer, kept at 4° C., and used within 24 h after sampling. Hemoglobin Yakima, a high-oxygen-affinity variant [α2 β2 99 (G1) Asp>>His], was obtained from a known heterozygous carrier. Fresh Yakima red cells were processed in the same way as described above.
L3,5 and L3,4,5 were provided by Dr. Lalezari (Montefiore Hospital, New York); RSR-4 [2-[4-[[(3,5-dichloroanilino)carbonyl]methyl]phenoxy]-2-methylpropionic acid]and RSR13 [2-4-[[(3,5- dimethylanilino)carbonyl]methyl]phenoxy]-2-methylpropionic acid] have been synthesized following the procedure described in Randad et al. (J. Med. Chem. 34,752 (1991)). Human serum albumin (HSA), bovine serum albumin (BSA) and 4,4'diisothiocyanatostilbene-2,2'-disulfonate (DIDS) were purchased from Sigma (St. Louis, Mo.). Due to their low solubility in aqueous buffer, 10 mM stock solutions of the compounds were prepared in a slight exccess of sodium bicarbonate and back-titrated to pH 7.4. For example, RSR-4 or RSR-13 was dissolved at 60° C. in a 140 mM NaCl and 50 mM bis-Tris buffer at room temperature upon progressive addition of NaHCO3 to obtain 10 mM stock solutions. The pH was carefully adjusted to 7.4 after complete solubilization and before use of the solutions. Fresh solutions were prepared each week. Stock solutions of DIDS (1 mM) were prepared, in the dark, on the day of the experiments in a pH 7.4 buffer. Human serum albumin (defatted HSA) and bovine serum albumin (BSA) were prepared freshly as 1 mM stock solutions, pH 7.4. Equilibrium Measurements. The allosteric modulation of the effectors on freshly prepared solutions of hemoglobin or red cell suspensions was measured by the change in p50, the partial pressure of oxygen for half-saturation. Oxygen equilibrium curves (OEC) were carried out with the Hemox analyzer (TCS, Southampton, Pa.) under the following conditions: pH 7.4, 140 mM NaCl and 50 mM bis-Tris buffer at 37° C. In all experiments, the concentration of hemoglobin in the red cell suspensions was 20-25 μM hemoglobin tetramer (Hb4) as measured by Drabkin's method (cyanomethemoglobin) at the end of each recording. The final concentration of the allosteric effector in the cuvette was 0.5 mM, resulting in an effector/Hb4 ratio of 20 in the absence of albumin. OEC were also made in the same buffer containing 12.5, 25, 50, and 100 μM HSA (for human red cell suspensions) or BSA (for bovine cell suspensions). The serum albumin experiments were carried out with traces of an antifoaming agent. This agent has no deleterious effect on the red cell suspensions. The molar ratio of albumin to tetrameric hemoglobin was varied from 0.5 (at 12.5 μM HSA) to 4 (at 100 μM HSA); in whole blood this ratio is approximately 0.3 (0.7 mM albumin plus plasma proteins/2.25 mM Hb4). Therefore, the concentration of albumin used in the present studies was always larger relative to tetrameric hemoglobin than that found in whole blood.
Equilibrium oxygen binding curves were also recorded for red cell suspensions (10% hematocrit) that had been reacted for 30 min in the dark at 37° C. with 20 μM DIDS, a specific inhibitor of the red cell membrane anion channel. Kinetic Experiments. The kinetics of the interaction between the effectors and intracellular hemoglobin were measured in the absence and presence of varying concentrations of HSA. The red cell suspensions were equilibrated under room air (pO2 =140 mmHg) at 37° C. in the optical cuvette of the Hemox analyzer, which provides a constant stirring of the suspensions. […] Changes in absorbance were recorded and stored on tape for further analyses. […]

O=C(O)C(COP(=O)(O)O)OP(=O)(O)O (stereo not shown) [DPG, 2,3-diphospho-glyceric acid]
state of purified Hb Yakima in the presence of effector (purified Hb Yakima): remains locked in the high-affinity R-state

CC(C)(Oc1ccc(Cl)cc1)C(=O)O [clofibric acid]
lowering of oxygen affinity / allosteric potency (prior art, words) (hemoglobin [1]): lowered the oxygen affinity of hemoglobin solutions | binding site in deoxyhemoglobin (prior art, words) (deoxyhemoglobin [2]): bind to the same sites in the central water cavity of deoxyhemoglobin | allosteric effector strength (hemoglobin [3]): only a relatively small effect in terms of lowering the oxygen affinity of hemoglobin

CC(C)(Oc1ccc(CCNC(=O)c2ccc(Cl)cc2)cc1)C(=O)O [bezafibrate]
lowering of oxygen affinity / allosteric potency (prior art, words) (hemoglobin [1]): much more effective in lowering the oxygen affinity of hemoglobin solutions and suspensions of fresh, intact red cells | binding site in deoxyhemoglobin (prior art, words) (deoxyhemoglobin [2]): bind to the same sites in the central water cavity of deoxyhemoglobin | allosteric effector strength (hemoglobin [3]): weakest effector; also recorded: much stronger allosteric effect | inhibition of effect by serum albumin (prior art, words) [4]: significantly inhibited by serum albumin

CC(C)(Oc1ccc(CNC(=O)c2ccc(Cl)cc2)cc1)C(=O)O [MM-25]
second symmetry-related pair of binding sites (deoxyhemoglobin [5]): have a second symmetry-related pair of binding sites near Arg 104β | allosteric effector strength (hemoglobin [3]): somewhat stronger than bezafibrate

Cc1cc(C)cc(NC(=O)Cc2ccc(OC(C)(C)C(=O)O)cc2)c1 [RSR-3]
hemolysis (bovine red cells): No hemolysis | hemolysis (human red cells): No hemolysis

CC(C)(Oc1ccc(NC(=O)Nc2cc(Cl)c(Cl)c(Cl)c2)cc1)C(=O)O [L3,4,5, reference compound]
second symmetry-related pair of binding sites (deoxyhemoglobin [5]): have a second symmetry-related pair of binding sites near Arg 104β | state of purified Hb Yakima in the presence of effector (purified Hb Yakima): remains locked in the high-affinity R-state | effect of DIDS (anion channel inhibitor) on the effect of the compounds [6]: does not inhibit the effects of the compounds | allosteric effector strength (hemoglobin [3]): much stronger allosteric effect
